Measured values taken from US20240368131A1, “OXOINDOLINYL AMIDE DERIVATIVES FOR INHIBITING NLRP3 AND USES THEREOF” (VENTUS THERAPEUTICS U.S. INC., priority 2022, published 2024).

How the values were obtained:
Assay type in all cases: cell-based
mouse NLRP3 = target: T1, mouse NLRP3 (Mus musculus, UniProt Q8R4B8); assay: Mouse Whole Blood (mWB) NLRP3 Assay (IL-1β MSD); conditions: CD1 mouse whole blood, LPS 1 μg/mL 5 h, ATP 5 mM; class symbols
T1 construct: Blood was drawn from female CD1 mice (9 to 10 weeks) by cardiac puncture; from tissue; host or cells: whole blood of female CD1 mice, LPS-primed, ATP-stimulated
Procedure: Reagents: The following reagents were used: blood collection tubes (Heparin); U-bottom 96-well tissue culture (Falcon 353077); HBSS for LPS, ATP and compound dilutions (Gibco 24020-117); and LPS, E. coli serotype 026:B6 (Sigma L-2654).
Mouse IL-1b MSD assay: Blood was drawn from female CD1 mice (9 to 10 weeks) by cardiac puncture. Blood was plated (135 μL) per well in 96-well U-bottom plates. 7.5 μL of 20× LPS (20 μg/mL, final concentration of 1 μg/mL) was added and mixed by gentle pipetting, and the mixture was incubated in a TC incubator for five hours. 7.5 μL of 20× compound or vehicle per well was added and mixed by gentle pipetting. Compounds were diluted 1/50 in HBSS to prepare a 20× dilution curve in 2% DMSO. The mixture was incubated for 30 minutes in a TC incubator with shaking (450 rpm). 5 μl of 31× ATP (155 mM, final concentration of 5 mM) was added and mixed by gentle pipetting. The mixture was incubated in a TC incubator for 30 minutes with shaking (450 rpm). The plate was centrifuged for 10 minutes at 800×g and ˜70 μL of plasma was removed. Plasma was frozen if required. Mouse IL-1b was analyzed with IL-1b MSD assay (K152TUK). […]
mWB IL-1β Assay: A represents an IC50 value <0.3 μM; B represents an IC50 value ≥0.3 μM and <0.5 μM; C represents an IC50 value ≥0.5 μM and <1.0 μM; D represents an IC50 value ≥1.0 μM.

human NLRP3 [1] = target: T2, human NLRP3 (Homo sapiens, UniProt Q96P20); assay: Human Whole Blood (hWB) NLRP3 Assay (IL-1β MSD); conditions: LPS 1 μg/ml 4.5 h, ATP 30 min, class symbols
Procedure: Human whole blood was drawn from healthy volunteers after obtaining written informed consent. Heparin lithium coated tubes were used to collect blood from volunteers. Blood samples were distributed on 96 well plates using 90 μl per well. Priming was performed by adding 5 μl of LPS (O26:B6; Sigma L-2654) at a final concentration of 1 μg/ml for 4.5 hours in a humidified incubator with 37° C., 5% CO2. Thirty minutes prior to NLRP3 activation, 5 μl of a 20× compound solution or vehicle (2% DMSO) was added to each well and plates were incubated on a shaker (450 rpm) in a humidified incubator with 37° C., 5% CO2. Activation was then performed by adding 3.3 μl of a 31× ATP solution per well. At the end of the 30 minutes stimulation, the plates were centrifuged (800 g, 10 min, room temperature) and the plasma from each well was frozen at −80° C. IL-1β levels in the supernatant were analyzed using a mesoscale discovery assay (MSD K151TUK) according to the manufacturers' instructions.
hWB IL-1β Assay: A represents an IC50 value <0.3 μM; B represents an IC50 value ≥0.3 μM and <0.5 μM; C represents an IC50 value ≥0.5 μM and <1.0 μM; D represents an IC50 value >1.0 μM.

human NLRP3 [2] = target: T2, human NLRP3; assay: Human PBMC NLRP3 Assay (IL-1β release); design: Human PBMCs (Normal): iXCells Cat #10HU-003; host or cells: human PBMCs (normal donors), LPS-primed, nigericin-stimulated; conditions: human PBMCs
Procedure: Reagents: Human PBMCs (Normal): iXCells Cat #10HU-003; RPMI 1640 medium (ATCC modification): ThermoFisher Cat #A1049101 (Complete Media: 10% FBS, 1% Pen/Strep; Assay Media: 1% Pen/Strep; 75 cm^2 cell culture flask: Corning Cat #430641U; 96-well cell culture plates: VWR Cat #10062-900; LPS (E. coli 026:B6): Sigma Cat #L2654, stock 5 mg/mL in PBS; Nigericin sodium salt: Sigma Cat #N7143, stock 5 mg/mL (6.7 mM) in ethanol.
Cryopreserved PBMCs (10×10^6 cells/vial) were rapidly thawed in a 37° C. water bath for 2 min and transferred in 10 mL Complete Media. Cells were then centrifuged at 1200 RPM for 5 min, resuspended in 40 mL of Complete Media, transferred in a 75 cm^2 cell culture flask and incubated overnight at 37° C. with 5% CO2. The next day, PBMCs were centrifuged, resuspended in 30 mL Assay Media (˜3.3×10^5 cells/mL) and distributed at 100 μL/well in a 96-well cell culture plate. 50 μl of Assay Media containing 300 ng/ml of LPS was then added to each well except for the untreated control wells (50 μl Assay Media without LPS). Cells were then primed with LPS for 4 h at 37° C. with 5% CO2. A concentration response curve (CRC) was prepared of 500× test compound in 100% dimethyl sulfoxide (DMSO). The CRC was then diluted 1:25 in Assay Media and then further diluted 1:5 in Assay Media resulting in a final 4× CRC in 0.8% DMSO/Assay Media. 50 μL/well of 4× test compound CRC or vehicle (0.8% DMSO/Assay Media) was then transferred into each well and subsequently incubated for 30 min at 37° C. with 5% CO2. Cells were stimulated by adding 4 μL of 500 μM Nigericin, for 1 h at 37° C. with 5% CO2 Plates were then centrifuged at 1200 RPM for 5 min and 100 μl of the media was transferred to a clean 96-well storage plate and stored at −80° C. until analyzed. Cytokine measurements were performed using the mesoscale platform. Compounds were added 30 minutes before priming the cells with LPS when TNFα was required to be quantified in the cytokine panel to confirm selectivity.
Human PBMC NLRP3 Assay: A represents an IC50 value <0.3 μM; B represents an IC50 value ≥0.3 μM and <0.5 μM; C represents an IC50 value ≥0.5 μM and <1.0 μM; D represents an IC50 value >1.0 μM and <10 μM; E represents an IC50 value >10 μM.

[3] = LPS priming 4 h, nigericin stimulation 1 h, class symbols
[4] = LPS priming, nigericin stimulation, numeric values of Tables C1-C4

T2 sequence (Q96P20 whole entry): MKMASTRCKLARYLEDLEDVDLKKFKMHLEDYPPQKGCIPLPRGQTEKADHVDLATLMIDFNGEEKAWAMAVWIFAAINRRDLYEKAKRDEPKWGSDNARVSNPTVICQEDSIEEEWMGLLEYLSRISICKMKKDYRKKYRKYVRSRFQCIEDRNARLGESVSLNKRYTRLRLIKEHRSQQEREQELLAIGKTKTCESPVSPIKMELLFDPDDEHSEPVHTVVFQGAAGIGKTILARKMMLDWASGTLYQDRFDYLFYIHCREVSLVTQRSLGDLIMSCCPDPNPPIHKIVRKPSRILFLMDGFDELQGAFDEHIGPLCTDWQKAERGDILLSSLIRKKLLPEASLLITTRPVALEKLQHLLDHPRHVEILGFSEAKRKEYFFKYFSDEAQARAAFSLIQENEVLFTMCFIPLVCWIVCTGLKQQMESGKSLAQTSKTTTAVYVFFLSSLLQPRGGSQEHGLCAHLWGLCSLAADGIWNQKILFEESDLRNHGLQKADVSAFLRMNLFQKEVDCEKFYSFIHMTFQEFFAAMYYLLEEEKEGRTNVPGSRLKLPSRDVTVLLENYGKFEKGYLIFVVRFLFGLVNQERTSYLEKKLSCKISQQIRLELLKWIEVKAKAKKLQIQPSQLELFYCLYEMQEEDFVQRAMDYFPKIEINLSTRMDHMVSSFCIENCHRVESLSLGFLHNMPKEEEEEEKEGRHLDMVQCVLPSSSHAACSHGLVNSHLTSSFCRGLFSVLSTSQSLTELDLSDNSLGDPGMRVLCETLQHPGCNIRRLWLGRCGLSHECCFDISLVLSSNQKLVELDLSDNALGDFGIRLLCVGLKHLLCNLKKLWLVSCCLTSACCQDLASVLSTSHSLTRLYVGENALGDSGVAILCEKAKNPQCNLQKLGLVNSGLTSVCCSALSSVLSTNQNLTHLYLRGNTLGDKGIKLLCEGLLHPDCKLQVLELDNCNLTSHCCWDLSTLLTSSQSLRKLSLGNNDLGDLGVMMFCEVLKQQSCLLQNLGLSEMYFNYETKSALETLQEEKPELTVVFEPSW
T1 sequence (Q8R4B8 whole entry): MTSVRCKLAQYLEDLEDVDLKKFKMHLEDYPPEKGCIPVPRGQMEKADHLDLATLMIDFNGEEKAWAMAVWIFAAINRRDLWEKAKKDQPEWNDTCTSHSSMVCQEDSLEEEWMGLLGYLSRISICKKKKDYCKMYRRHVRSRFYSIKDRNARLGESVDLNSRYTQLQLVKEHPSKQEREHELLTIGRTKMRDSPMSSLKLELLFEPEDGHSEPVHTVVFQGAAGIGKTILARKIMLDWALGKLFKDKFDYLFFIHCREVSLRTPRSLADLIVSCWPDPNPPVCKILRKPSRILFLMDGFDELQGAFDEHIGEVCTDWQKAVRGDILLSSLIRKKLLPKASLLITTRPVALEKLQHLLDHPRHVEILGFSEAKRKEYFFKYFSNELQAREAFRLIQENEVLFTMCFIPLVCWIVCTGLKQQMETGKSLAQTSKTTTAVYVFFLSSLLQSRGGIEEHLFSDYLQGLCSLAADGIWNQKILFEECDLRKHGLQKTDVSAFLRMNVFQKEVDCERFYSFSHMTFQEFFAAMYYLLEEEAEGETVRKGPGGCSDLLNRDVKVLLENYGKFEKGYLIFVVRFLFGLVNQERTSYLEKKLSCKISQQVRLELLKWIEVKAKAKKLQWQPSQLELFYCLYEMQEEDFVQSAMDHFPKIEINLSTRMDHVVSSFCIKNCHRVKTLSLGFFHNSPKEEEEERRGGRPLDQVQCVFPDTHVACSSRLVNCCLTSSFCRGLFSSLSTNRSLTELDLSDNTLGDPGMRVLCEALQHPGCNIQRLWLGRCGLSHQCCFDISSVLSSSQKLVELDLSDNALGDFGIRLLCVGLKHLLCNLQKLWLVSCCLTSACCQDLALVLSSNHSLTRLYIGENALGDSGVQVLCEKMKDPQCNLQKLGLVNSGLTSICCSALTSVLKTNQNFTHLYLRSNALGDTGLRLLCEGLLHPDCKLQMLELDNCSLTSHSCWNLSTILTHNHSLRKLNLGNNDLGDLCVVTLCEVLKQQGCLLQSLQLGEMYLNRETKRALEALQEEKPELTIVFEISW

| Compound | IC50 (mouse NLRP3) | IC50 (human NLRP3 [1]) | IC50 (human NLRP3 [2]; [3]) | IC50 (human NLRP3 [2]; [4]) |
| --- | --- | --- | --- | --- |
| CC1(C)C(=O)N(CC(=O)NCCCc2nnn[nH]2)c2ccc(Br)cc21 [Compound 1, N-(3-(1H-tetrazol-5-yl)propyl)-2-(5-bromo-3,3-dimethyl-2-oxoindolin-1-yl)acetamide] | < 300 nM | > 1000 nM | < 300 nM |  |
| CC1(C)C(=O)N(CC(=O)NCCCC(=O)O)c2ccc(Br)cc21 [Compound 2, 4-(2-(5-bromo-3,3-dimethyl-2-oxoindolin-1-yl)acetamido)butanoic acid] | < 300 nM | > 1000 nM | < 300 nM | 150 nM |
| CC1(C)C(=O)N(CC(=O)NCCCC(=O)O)c2c(O)cc(Br)cc21 [Compound 16, 4-(2-(5-bromo-7-hydroxy-3,3-dimethyl-2-oxoindolin-1-yl)acetamido)butanoic acid] | 500 to 1000 nM | 500 to 1000 nM | < 300 nM |  |
| CC1(C)C(=O)N(CC(=O)NCCCC(=O)O)c2ccc(C3CC3)c(F)c21 [Compound 56, 4-(2-(5-cyclopropyl-4-fluoro-3,3-dimethyl-2-oxoindolin-1-yl)acetamido)butanoic acid] | < 300 nM | 500 to 1000 nM | < 300 nM | 46 nM |
| CC1(C)C(=O)N(CC(=O)NCCCC(=O)O)c2c(F)cc(C3CC3)c(F)c21 [Compound 57, 4-(2-(5-cyclopropyl-4,7-difluoro-3,3-dimethyl-2-oxoindolin-1-yl)acetamido)butanoic acid] | < 300 nM | 300 to 500 nM | < 300 nM | 59 nM |
| C[C@@H](CCC(=O)O)NC(=O)CN1C(=O)C(C)(C)c2c(F)c(C3CC3)cc(F)c21 [Compound 59A, (S)-4-(2-(5-cyclopropyl-4,7-difluoro-3,3-dimethyl-2-oxoindolin-1-yl)acetamido)pentanoic acid] | < 300 nM | 300 to 500 nM | < 300 nM |  |
| CC1(C)C(=O)N(CC(=O)NC[C@H](F)CC(=O)O)c2ccc(C3CC3)c(F)c21 [Compound 63A, (R)-4-(2-(5-cyclopropyl-4-fluoro-3,3-dimethyl-2-oxoindolin-1-yl)acetamido)-3-fluorobutanoic acid] | < 300 nM | 500 to 1000 nM | < 300 nM |  |
| CC1(C)C(=O)N(CC(=O)NC[C@H](F)CC(=O)O)c2c(F)cc(C(F)(F)F)c(F)c21 [Compound 64A, (R)-4-(2-(4,7-difluoro-3,3-dimethyl-2-oxo-5-(trifluoromethyl)indolin-1-yl)acetamido)-3-fluorobutanoic acid] | < 300 nM | 500 to 1000 nM | < 300 nM |  |
| CC1(C)C(=O)N(CC(=O)NCCCc2nnn[nH]2)c2c(F)cc(C3CC3)c(F)c21 [Compound 65, N-(3-(1H-tetrazol-5-yl)propyl)-2-(5-cyclopropyl-4,7-difluoro-3,3-dimethyl-2-oxoindolin-1-yl)acetamide] | < 300 nM | 500 to 1000 nM | < 300 nM | 15 nM |
| CC1(C)C(=O)N(CC(=O)NCCCC(=O)O)c2c(F)cc(C3CC3)cc21 [Compound 66, 4-(2-(5-cyclopropyl-7-fluoro-3,3-dimethyl-2-oxoindolin-1-yl)acetamido)butanoic acid] | < 300 nM | < 300 nM | < 300 nM | 24 nM |
